Source: patent publication US20230151003A1, “COMPOUNDS AND METHODS OF USE” (Exelixis, Inc., priority 2020, published 2023)

biological target: T1, Mer (Homo sapiens, UniProt Q12866); assay: Mer autophosphorylation ELISA in transient transfected 293A cells; assay type: cell-based; details: Table 3 Cellular Activities; MERTK-transfected 293A cells, phospho-Mer ELISA
T1 construct: host or cells: 293A cells (Thermo Fisher #R70507)
T1 sequence (Q12866 21-999): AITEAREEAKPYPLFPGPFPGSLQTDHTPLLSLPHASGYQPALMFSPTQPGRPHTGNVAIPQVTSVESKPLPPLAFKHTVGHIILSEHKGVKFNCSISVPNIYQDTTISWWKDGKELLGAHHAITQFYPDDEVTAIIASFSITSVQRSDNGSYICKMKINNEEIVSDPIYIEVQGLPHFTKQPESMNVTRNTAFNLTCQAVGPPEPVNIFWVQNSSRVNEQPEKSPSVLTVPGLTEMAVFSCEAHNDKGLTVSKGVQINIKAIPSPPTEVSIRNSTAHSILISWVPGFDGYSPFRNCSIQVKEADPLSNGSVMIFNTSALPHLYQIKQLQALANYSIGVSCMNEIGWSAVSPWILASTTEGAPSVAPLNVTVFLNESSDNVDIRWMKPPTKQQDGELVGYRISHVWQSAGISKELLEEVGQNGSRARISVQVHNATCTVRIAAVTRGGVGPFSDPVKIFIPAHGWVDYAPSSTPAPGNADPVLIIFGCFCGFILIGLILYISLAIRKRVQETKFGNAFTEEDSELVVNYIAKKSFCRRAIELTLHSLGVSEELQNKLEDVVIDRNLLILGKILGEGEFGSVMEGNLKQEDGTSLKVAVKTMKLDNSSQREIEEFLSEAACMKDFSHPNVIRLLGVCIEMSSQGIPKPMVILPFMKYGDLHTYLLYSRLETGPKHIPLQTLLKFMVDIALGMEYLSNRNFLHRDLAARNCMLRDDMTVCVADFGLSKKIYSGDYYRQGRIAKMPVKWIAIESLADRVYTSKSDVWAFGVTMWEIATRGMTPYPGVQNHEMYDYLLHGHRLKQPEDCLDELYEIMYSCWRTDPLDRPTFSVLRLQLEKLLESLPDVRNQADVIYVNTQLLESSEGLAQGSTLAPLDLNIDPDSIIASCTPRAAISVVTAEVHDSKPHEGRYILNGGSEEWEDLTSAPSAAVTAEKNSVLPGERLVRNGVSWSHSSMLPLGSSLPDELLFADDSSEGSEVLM
Outline: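 293A cells transiently transfected with human MERTK DNA, replated after 24 h, then treated 1 h with 8-point compound dilutions in serum-free medium (0.3% DMSO). Lysates assayed by phospho-Mer sandwich ELISA against phospho-Mer standard; DMSO = 100%, reference inhibitor = 0% activity; IC50 by 4-parameter logistic fit.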

IC50, ≤ 100 nM:
COc1cc2nccc(Oc3ccc(NC(=O)c4c(C)nc(C)c(-c5ccnn5C)c4O)cc3F)c2nc1OC [Compound 108, N-[4-[(6,7-Dimethoxy-1,5-naphthyridin-4-yl)oxy]-3-fluoro-phenyl]-4-hydroxy-2,6-dimethyl-5-(2-methylpyrazol-3-yl) pyridine-3-carboxamide]
COc1cc2nccc(Oc3ccc(NC(=O)c4cn(CCF)c(C)c(-c5ccco5)c4=O)cc3F)c2nc1OC [Compound 333, N-[4-[(6,7-Dimethoxy-1,5-naphthyridin-4-yl)oxy]-3-fluorophenyl]-1-(2-fluoroethyl)-5-(furan-2-yl)-6-methyl-4-oxopyridine-3-carboxamide]
COc1cc2nccc(Oc3ccc(NC(=O)c4c(C)ncc(-c5cccs5)c4O)cc3F)c2nc1OC [Compound 123, N-[4-[(6,7-Dimethoxy-1,5-naphthyridin-4-yl)oxy]-3-fluorophenyl]-4-hydroxy-2-methyl-5-thiophen-2-ylpyridine-3-carboxamide]
COc1cnc2c(Oc3ccc(NC(=O)c4cnc(C)c(-c5ccoc5)c4O)cc3F)ccnc2c1 [Compound 99, N-[3-Fluoro-4-[(7-methoxy-1,5-naphthyridin-4-yl)oxy]phenyl]-5-(3-furyl)-4-hydroxy-6-methyl-pyridine-3-carboxamide]
COc1cc2nccc(Oc3ccc(NC(=O)c4c(C)ncc(-c5ccsc5)c4O)cc3F)c2nc1OC [Compound 127, N-[4-[(6,7-Dimethoxy-1,5-naphthyridin-4-yl)oxy]-3-fluorophenyl]-4-hydroxy-2-methyl-5-thiophen-3-ylpyridine-3-carboxamide]
COCc1nc(C)c(-c2cccs2)c(O)c1C(=O)Nc1ccc(Oc2ccnc3cc(OC)c(OC)nc23)c(F)c1 [Compound 115, N-[4-[(6,7-Dimethoxy-1,5-naphthyridin-4-yl)oxy]-3-fluorophenyl]-4-hydroxy-2-(methoxymethyl)-6-methyl-5-thiophen-2-ylpyridine-3-carboxamide]
C=CCc1ccc(-c2c(C)ncc(C(=O)Nc3ccc(Oc4ccnc5cc(OC)c(OC)nc45)c(F)c3)c2O)o1 [Compound 155, N-[4-[(6,7-Dimethoxy-1,5-naphthyridin-4-yl)oxy]-3-fluorophenyl]-4-hydroxy-6-methyl-5-(5-prop-2-enylfuran-2-yl)pyridine-3-carboxamide]
COc1cc2nccc(Oc3ccc(NC(=O)c4c(C)ncc(-c5sccc5C)c4O)cc3F)c2nc1OC [Compound 126, N-[4-[(6,7-Dimethoxy-1,5-naphthyridin-4-yl)oxy]-3-fluorophenyl]-4-hydroxy-2-methyl-5-(3-methylthiophen-2-yl)pyridine-3-carboxamide]
COc1cnc2c(Oc3ccc(NC(=O)c4cnc(C)c(-c5ccco5)c4O)cc3)ccnc2c1 [Compound 129, 5-(Furan-2-yl)-4-hydroxy-N-[4-[(7-methoxy-1,5-naphthyridin-4-yl)oxy]phenyl]-6-methylpyridine-3-carboxamide]
COc1nc2c(Oc3ccc(NC(=O)c4c(C)n(C)c(C)c(-c5ccco5)c4=O)cc3F)ccnc2cc1OCCC1CCC1 [Compound 337, N-[4-[[7-(2-Cyclobutylethoxy)-6-methoxy-1,5-naphthyridin-4-yl]oxy]-3-fluorophenyl]-5-(furan-2-yl)-1,2,6-trimethyl-4-oxopyridine-3-carboxamide]
COc1cc2nccc(Oc3ccc(NC(=O)c4cnc(C)c(-c5cc(C)cs5)c4O)cc3F)c2nc1OC [Compound 91, N-[4-[(6,7-Dimethoxy-1,5-naphthyridin-4-yl)oxy]-3-fluoro-phenyl]-4-hydroxy-6-methyl-5-(4-methyl-2-thienyl) pyridine-3-carboxamide]
COc1cnc2c(Oc3ccc(NC(=O)c4cn(CCF)c(C)c(-c5ccoc5)c4=O)cc3F)ccnc2c1 [Compound 334, 1-(2-Fluoroethyl)-N-[3-fluoro-4-[(7-methoxy-1,5-naphthyridin-4-yl)oxy]phenyl]-5-(furan-3-yl)-6-methyl-4-oxopyridine-3-carboxamide]
COCc1nc(C)c(-c2ccccn2)c(O)c1C(=O)Nc1ccc(Oc2ccnc3cc(OC)c(OC)nc23)c(F)c1 [Compound 195, N-[4-[(6,7-Dimethoxy-1,5-naphthyridin-4-yl)oxy]-3-fluorophenyl]-4-hydroxy-2-(methoxymethyl)-6-methyl-5-pyridin-2-ylpyridine-3-carboxamide]
COc1cc2nccc(Oc3ccc(NC(=O)c4c(C)nc(C)c(-c5ccco5)c4O)cc3F)c2nc1OC [Compound 135, N-[4-[(6,7-Dimethoxy-1,5-naphthyridin-4-yl)oxy]-3-fluorophenyl]-5-(furan-2-yl)-4-hydroxy-2,6-dimethylpyridine-3-carboxamide]
COc1cc2nccc(Oc3ccc(NC(=O)c4cnc(C)c(-c5ccc(C)o5)c4O)cc3F)c2nc1OC [Compound 92, N-[4-[(6,7-Dimethoxy-1,5-naphthyridin-4-yl)oxy]-3-fluoro-phenyl]-4-hydroxy-6-methyl-5-(5-methyl-2-furyl)pyridine-3-carboxamide]
COc1cc2nccc(Oc3ccc(NC(=O)c4c(C)nc(C)c(-c5ccc(C(C)C)o5)c4O)cc3F)c2nc1OC [Compound 148, N-[4-[(6,7-Dimethoxy-1,5-naphthyridin-4-yl)oxy]-3-fluorophenyl]-4-hydroxy-2,6-dimethyl-5-(5-propan-2-ylfuran-2-yl)pyridine-3-carboxamide]
C=C(C)c1ccc(-c2c(C)ncc(C(=O)Nc3ccc(Oc4ccnc5cc(OC)c(OC)nc45)c(F)c3)c2O)o1 [Compound 152, N-[4-[(6,7-Dimethoxy-1,5-naphthyridin-4-yl)oxy]-3-fluorophenyl]-4-hydroxy-6-methyl-5-(5-prop-1-en-2-ylfuran-2-yl)pyridine-3-carboxamide]
COc1cnc2c(Oc3ccc(NC(=O)c4cn(CCF)c(C)c(-c5cccs5)c4=O)cc3F)ccnc2c1 [Compound 331, 1-(2-Fluoroethyl)-N-[3-fluoro-4-[(7-methoxy-1,5-naphthyridin-4-yl)oxy]phenyl]-6-methyl-4-oxo-5-thiophen-2-ylpyridine-3-carboxamide]
COc1ccc2nccc(Oc3ccc(NC(=O)c4cnc(C)c(-c5ccco5)c4O)cc3F)c2n1 [Compound 118, N-[3-Fluoro-4-[(6-methoxy-1,5-naphthyridin-4-yl)oxy]phenyl]-5-(furan-2-yl)-4-hydroxy-6-methylpyridine-3-carboxamide]
COc1cc2nccc(Oc3ccc(NC(=O)c4cnc(C)c(-c5cnoc5)c4O)cc3F)c2nc1OC [Compound 140, N-[4-[(6,7-Dimethoxy-1,5-naphthyridin-4-yl)oxy]-3-fluorophenyl]-4-hydroxy-6-methyl-5-(1,2-oxazol-4-yl)pyridine-3-carboxamide]
COc1ccc2nccc(Oc3ccc(NC(=O)c4cnc(C)c(-c5cccs5)c4O)cc3F)c2n1 [Compound 128, N-[3-Fluoro-4-[(6-methoxy-1,5-naphthyridin-4-yl)oxy]phenyl]-4-hydroxy-6-methyl-5-thiophen-2-ylpyridine-3-carboxamide]
COc1cc2nccc(Oc3ccc(NC(=O)c4cnc(C)c(-c5cc(C)nn5C)c4O)cc3F)c2nc1OC [Compound 136, N-[4-[(6,7-Dimethoxy-1,5-naphthyridin-4-yl)oxy]-3-fluorophenyl]-5-(2,5-dimethylpyrazol-3-yl)-4-hydroxy-6-methylpyridine-3-carboxamide]
